Reference: ChEMBL document CHEMBL1201862, “PubChem BioAssay data set” (2004)
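Dose response: 5 concentrations. Exposure: 48 h. Format: 96-well plates. Endpoint: linear interpolation; highest concentration if not reached. The concentration for 50% growth inhibition is given as GI50.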 The source made the active and inactive calls. Cut-off read from the data, not from the text of the source: active = GI50 up to about 1.1 µM and inactive = higher.

How the values were obtained:
Test in all cases: NCI anticancer screen, dose series, 48 h
RXF 393 = system: RXF 393
SK-MEL-5 = system: SK-MEL-5
SW-620 = system: SW-620
OVCAR-4 = system: OVCAR-4
NCI-H226 = system: NCI-H226
M14 = system: M14
COLO 205 = system: COLO 205
SK-MEL-28 = system: SK-MEL-28
HCT-15 = system: HCT-15
IGROV-1 = system: IGROV-1
HCC 2998 = system: HCC 2998
ACHN = system: ACHN
NCI-H460 = system: NCI-H460
SF-539 = system: SF-539
RPMI-8226 = system: RPMI-8226
CCRF-CEM = system: CCRF-CEM
786-0 = system: 786-0
KM12 = system: KM12
UO-31 = system: UO-31
OVCAR-5 = system: OVCAR-5
A498 = system: A498
SK-MEL-2 = system: SK-MEL-2
UACC-257 = system: UACC-257
BT-549 = system: BT-549
MOLT-4 = system: MOLT-4
UACC-62 = system: UACC-62
PC-3 = system: PC-3
MDA-N = system: MDA-N
MDA-MB-231 = system: MDA-MB-231
SR = system: SR
NCI/ADR-RES = system: NCI/ADR-RES
NCI-H23 = system: NCI-H23
LOX IMVI = system: LOX IMVI
K562 = system: K562
DU-145 = system: DU-145
MDA-MB-435 = system: MDA-MB-435
SF-295 = system: SF-295
MCF7 = system: MCF7
OVCAR-3 = system: OVCAR-3
Hs-578T = system: Hs-578T
SN12C = system: SN12C
NCI-H522 = system: NCI-H522
HCT-116 = system: HCT-116
HOP-62 = system: HOP-62
EKVX = system: EKVX
CAKI-1 = system: CAKI-1
SNB-19 = system: SNB-19
TK-10 = system: TK-10
SK-OV-3 = system: SK-OV-3
OVCAR-8 = system: OVCAR-8
HL-60 = system: HL-60
HT-29 = system: HT-29
A549 = system: A549
SNB-75 = system: SNB-75
U-251 = system: U-251
HOP-92 = system: HOP-92
T47D = system: T47D
SF-268 = system: SF-268
Malme-3M = system: Malme-3M

SMILES: Cc1c(C2=C(Br)C(=O)N(C)C2=O)c(=O)n(C)c(=O)n1C
- GI50 (RXF 393): 14.3 µM (inactive)
- GI50 (SK-MEL-5): 22 µM (inactive)
- GI50 (SW-620): 31.4 µM (inactive)
- GI50 (OVCAR-4): 37.7 µM (inactive)
- GI50 (NCI-H226): > 100 µM (inactive)
- GI50 (M14): 35.1 µM (inactive)
- GI50 (COLO 205): 15.3 µM (inactive)
- GI50 (SK-MEL-28): 39.4 µM (inactive)
- GI50 (HCT-15): 19.4 µM
- GI50 (IGROV-1): 18 µM (inactive)
- GI50 (HCC 2998): 22.2 µM (inactive)
- GI50 (ACHN): 26.7 µM (inactive)
- GI50 (NCI-H460): 45.6 µM (inactive)
- GI50 (SF-539): 14.9 µM (inactive)
- GI50 (RPMI-8226): 15.1 µM (inactive)
- GI50 (CCRF-CEM): 12.2 µM (inactive)
- GI50 (786-0): 17.5 µM (inactive)
- GI50 (KM12): > 100 µM (inactive)
- GI50 (UO-31): 18.5 µM (inactive)
- GI50 (OVCAR-5): 61.8 µM (inactive)
- GI50 (A498): 29.4 µM (inactive)
- GI50 (SK-MEL-2): 16.1 µM (inactive)
- GI50 (UACC-257): 17.4 µM (inactive)
- GI50 (BT-549): 24.3 µM (inactive)
- GI50 (MOLT-4): 15.8 µM (inactive)
- GI50 (UACC-62): 34.4 µM (inactive)
- GI50 (PC-3): 23.6 µM (inactive)
- GI50 (MDA-N): 28.1 µM (inactive)
- GI50 (MDA-MB-231): 25.2 µM (inactive)
- GI50 (SR): 23.1 µM (inactive)
- GI50 (NCI/ADR-RES): 27.8 µM (inactive)
- GI50 (NCI-H23): 20.7 µM (inactive)
- GI50 (LOX IMVI): 17.1 µM (inactive)
- GI50 (K562): 21.3 µM (inactive)
- GI50 (DU-145): 28 µM (inactive)
- GI50 (MDA-MB-435): 24.9 µM (inactive)
- GI50 (SF-295): > 100 µM (inactive)
- GI50 (MCF7): 20.2 µM (inactive)
- GI50 (OVCAR-3): 37.2 µM (inactive)
- GI50 (Hs-578T): > 100 µM (inactive)
- GI50 (SN12C): 95.1 µM (inactive)
- GI50 (NCI-H522): 13.6 µM (inactive)
- GI50 (HCT-116): 20.5 µM (inactive)
- GI50 (HOP-62): > 100 µM (inactive)
- GI50 (EKVX): 21.6 µM (inactive)
- GI50 (CAKI-1): 19 µM (inactive)
- GI50 (SNB-19): > 100 µM (inactive)
- GI50 (TK-10): 17.4 µM (inactive)
- GI50 (SK-OV-3): > 100 µM (inactive)
- GI50 (OVCAR-8): 29.6 µM (inactive)
- GI50 (HL-60): 17.1 µM (inactive)
- GI50 (HT-29): 20.3 µM (inactive)
- GI50 (A549): > 100 µM (inactive)
- GI50 (SNB-75): > 100 µM (inactive)
- GI50 (U-251): 63.1 µM (inactive)
- GI50 (HOP-92): 17.7 µM (inactive)
- GI50 (T47D): 19.8 µM (inactive)
- GI50 (SF-268): 43.5 µM (inactive)

SMILES: CC(=O)Oc1c2ccsc2c(OC(C)=O)c2ccsc12
- GI50 (RXF 393): 0.0172 µM (active)
- GI50 (SK-MEL-5): 0.167 µM (active)
- GI50 (SW-620): 1.08 µM (active)
- GI50 (OVCAR-4): 0.67 µM (active)
- GI50 (NCI-H226): 2.54 µM (inactive)
- GI50 (M14): 0.269 µM (active)
- GI50 (COLO 205): 1.76 µM (inactive)
- GI50 (SK-MEL-28): 0.329 µM (active)
- GI50 (HCT-15): 0.573 µM
- GI50 (IGROV-1): 1.79 µM (inactive)
- GI50 (HCC 2998): 1.8 µM (inactive)
- GI50 (ACHN): 0.667 µM (active)
- GI50 (NCI-H460): 1.81 µM (inactive)
- GI50 (SF-539): 0.294 µM (active)
- GI50 (RPMI-8226): 6.56 µM (inactive)
- GI50 (CCRF-CEM): 0.859 µM (active)
- GI50 (786-0): 2.62 µM (inactive)
- GI50 (KM12): 1.67 µM (inactive)
- GI50 (UO-31): 1.33 µM (inactive)
- GI50 (OVCAR-5): 2.47 µM (inactive)
- GI50 (A498): 1.77 µM (inactive)
- GI50 (SK-MEL-2): 0.138 µM (active)
- GI50 (UACC-257): 0.189 µM (active)
- GI50 (BT-549): 0.384 µM (active)
- GI50 (MOLT-4): 0.955 µM (active)
- GI50 (UACC-62): 1.59 µM (inactive)
- GI50 (PC-3): 0.164 µM (active)
- GI50 (MDA-N): 0.12 µM (active)
- GI50 (MDA-MB-231): 1.29 µM (inactive)
- GI50 (SR): 0.317 µM (active)
- GI50 (NCI/ADR-RES): 0.284 µM (active)
- GI50 (NCI-H23): 0.269 µM (active)
- GI50 (LOX IMVI): 0.184 µM (active)
- GI50 (DU-145): 0.412 µM (active)
- GI50 (MDA-MB-435): 0.179 µM (active)
- GI50 (SF-295): 1.07 µM (active)
- GI50 (MCF7): 0.667 µM (active)
- GI50 (OVCAR-3): 0.417 µM (active)
- GI50 (Hs-578T): 0.354 µM (active)
- GI50 (Malme-3M): 0.286 µM (active)
- GI50 (SN12C): 0.714 µM (active)
- GI50 (NCI-H522): 0.483 µM (active)
- GI50 (HCT-116): 0.764 µM (active)
- GI50 (HOP-62): 1.27 µM (inactive)
- GI50 (EKVX): 1.5 µM (inactive)
- GI50 (CAKI-1): 2.11 µM (inactive)
- GI50 (SNB-19): 1.47 µM (inactive)
- GI50 (TK-10): 1.97 µM (inactive)
- GI50 (SK-OV-3): 2.86 µM (inactive)
- GI50 (OVCAR-8): 0.337 µM (active)
- GI50 (HL-60): 0.647 µM (active)
- GI50 (HT-29): 2.12 µM (inactive)
- GI50 (A549): 0.224 µM (active)
- GI50 (SNB-75): 0.286 µM (active)
- GI50 (U-251): 0.869 µM (active)
- GI50 (HOP-92): 0.577 µM (active)
- GI50 (T47D): 1.89 µM (inactive)
- GI50 (SF-268): 0.906 µM (active)

SMILES: O=C1C2Cc3c(n(C(=O)c4ccccc4)c4ccccc34)CC2C(=O)N1c1ccc(Nc2ccc(N3C(=O)C4Cc5c(n(C(=O)c6ccccc6)c6ccccc56)CC4C3=O)cc2)cc1 (stereo unspecified)
- GI50 (RXF 393): > 100 µM (inactive)
- GI50 (SK-MEL-5): 58.1 µM (inactive)
- GI50 (OVCAR-4): > 100 µM (inactive)
- GI50 (NCI-H226): > 100 µM (inactive)
- GI50 (M14): 30.9 µM (inactive)
- GI50 (COLO 205): > 100 µM (inactive)
- GI50 (SK-MEL-28): > 100 µM (inactive)
- GI50 (HCT-15): > 100 µM
- GI50 (IGROV-1): > 100 µM (inactive)
- GI50 (HCC 2998): > 100 µM (inactive)
- GI50 (ACHN): > 100 µM (inactive)
- GI50 (NCI-H460): > 100 µM (inactive)
- GI50 (CCRF-CEM): 40.4 µM (inactive)
- GI50 (786-0): > 100 µM (inactive)
- GI50 (KM12): > 100 µM (inactive)
- GI50 (UO-31): > 100 µM (inactive)
- GI50 (OVCAR-5): > 100 µM (inactive)
- GI50 (A498): > 100 µM (inactive)
- GI50 (UACC-257): > 100 µM (inactive)
- GI50 (BT-549): > 100 µM (inactive)
- GI50 (MOLT-4): > 100 µM (inactive)
- GI50 (UACC-62): 61 µM (inactive)
- GI50 (PC-3): > 100 µM (inactive)
- GI50 (MDA-N): > 100 µM (inactive)
- GI50 (MDA-MB-231): 24.3 µM (inactive)
- GI50 (SR): 44.4 µM (inactive)
- GI50 (NCI/ADR-RES): > 100 µM (inactive)
- GI50 (NCI-H23): > 100 µM (inactive)
- GI50 (LOX IMVI): > 100 µM (inactive)
- GI50 (K562): > 100 µM (inactive)
- GI50 (DU-145): > 100 µM (inactive)
- GI50 (MDA-MB-435): > 100 µM (inactive)
- GI50 (SF-295): > 100 µM (inactive)
- GI50 (MCF7): > 100 µM (inactive)
- GI50 (OVCAR-3): > 100 µM (inactive)
- GI50 (Hs-578T): > 100 µM (inactive)
- GI50 (Malme-3M): > 100 µM (inactive)
- GI50 (SN12C): > 100 µM (inactive)
- GI50 (NCI-H522): > 100 µM (inactive)
- GI50 (HCT-116): > 100 µM (inactive)
- GI50 (HOP-62): > 100 µM (inactive)
- GI50 (EKVX): > 100 µM (inactive)
- GI50 (CAKI-1): > 100 µM (inactive)
- GI50 (SNB-19): > 100 µM (inactive)
- GI50 (TK-10): > 100 µM (inactive)
- GI50 (SK-OV-3): > 100 µM (inactive)
- GI50 (OVCAR-8): > 100 µM (inactive)
- GI50 (HL-60): 8.85 µM (inactive)
- GI50 (HT-29): > 100 µM (inactive)
- GI50 (A549): > 100 µM (inactive)
- GI50 (SNB-75): > 100 µM (inactive)
- GI50 (U-251): > 100 µM (inactive)
- GI50 (HOP-92): 46 µM (inactive)
- GI50 (T47D): > 100 µM (inactive)
- GI50 (SF-268): > 100 µM (inactive)
